From patent publication US7414047B2, “Piperazinyl and diazapanyl benzamides and benzthioamides” (Janssen Pharmaceutica N.V., priority 2002, dated 2008) come the findings set out here.

Structures can show the parent of a compound that is named as a salt.

In the first assay the target is T1, human histamine H3 receptor (Homo sapiens, UniProt Q9Y5N1).
T1 construct: One microgram of supercoiled H3 receptor cDNA was added to the cells and mixed; expressed in transfected cells; membranes prepared from cell pellets
T1 sequence (Q9Y5N1 whole entry): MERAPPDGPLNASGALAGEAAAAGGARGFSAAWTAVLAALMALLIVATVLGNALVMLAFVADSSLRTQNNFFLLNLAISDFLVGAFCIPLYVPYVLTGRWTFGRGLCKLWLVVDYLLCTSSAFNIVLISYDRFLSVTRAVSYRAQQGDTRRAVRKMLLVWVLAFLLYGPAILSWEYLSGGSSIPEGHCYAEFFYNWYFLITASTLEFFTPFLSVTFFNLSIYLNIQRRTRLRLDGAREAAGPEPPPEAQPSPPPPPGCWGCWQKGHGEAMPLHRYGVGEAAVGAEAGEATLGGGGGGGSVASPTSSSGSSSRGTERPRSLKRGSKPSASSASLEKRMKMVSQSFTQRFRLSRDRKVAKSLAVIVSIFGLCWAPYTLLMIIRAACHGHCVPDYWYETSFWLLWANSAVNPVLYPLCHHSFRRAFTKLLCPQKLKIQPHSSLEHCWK
The experiment in a line: {3H}-N-methylhistamine binding.
Conditions: not given
The protocol:
Transfection of Cells with Human Histamine Receptor
A 10 cm tissue culture dish with a confluent monolayer of SK-N-MC cells was split two days prior to transfection. Using sterile technique the media was removed and the cells were detached from the dish by the addition of trypsin. One fifth of the cells were then placed onto a new 10 cm dish. Cells were grown in a 37° C. incubator with 5% CO2 in Minimal Essential Media Eagle with 10%. Fetal Bovine Serum. After two days cells were approximately 80% confluent. These were removed from the dish with trypsin and pelleted in a clinical centrifuge. The pellet was then re-suspended in 400 μL complete media and transferred to an electroporation cuvette with a 0.4 cm gap between the electrodes. One microgram of supercoiled H3 receptor cDNA was added to the cells and mixed. The voltage for the electroporation was set at 0.25 kV, the capacitance was set at 960 μF. After electroporation the cells were diluted into 10 mL complete media and plated onto four 10 cm dishes. Because of the variability in the efficiency of electroporation, four different concentrations of cells were plated. The ratios used were; 1:20, 1:10, 1:5, with the remainder of the cells being added to the fourth dish. […] After 10 days dishes were analyzed for surviving colonies of cells. Dishes with well-isolated colonies were used. Cells from individual colonies were isolated and tested. SK-N-MC cells were used because they give efficient coupling for inhibition of adenylate cyclase. The clones that gave the most robust inhibition of adenylate cyclase in response to histamine were used for further study.
{^3H}-N-methylhistamine Binding
Cell pellets from histamine H3 receptor-expressing SK-N-MC cells were homogenized in 20 mM TrisHCl/0.5 mM EDTA. Supernatants from an 800 g spin were collected, recentrifuged at 30,000 g for 30 min. Pellets were re-homogenized in 50 mM Tris/5 mM EDTA (pH 7.4). […] Filters were dried, added to 4 mL scintillation cocktail and then counted on a liquid scintillation counter. Non-specific binding was defined with 10 μM histamine.
`CCC(CC)N1CCN(C(=O)c2ccc(CNCc3ccccc3)cc2)CC1` [Example 20, {4-(Benzylamino-methyl)-phenyl}-{4-(1-ethyl-propyl)-piperazin-1-yl}-methanone] showed a Ki of 0.002 µM.
Still for that read-out and setting: the same measure for `CCC(CC)N1CCN(C(=O)c2ccc(CN3CCCCCC3)cc2)CC1` [Example 21, (4-Azepan-1-ylmethyl-phenyl)-{4-(1-ethyl-propyl)-piperazin-1-yl}-methanone]: 0.002 µM; for `CCC(CC)N1CCN(C(=O)c2ccc(CN3CCC4CCCCC4C3)cc2)CC1` (centres unmarked) [Example 22, {4-(1-Ethyl-propyl)-piperazin-1-yl}-{4-(decahydro-isoguinolin-2-ylmethyl)-phenyl}-methanone]: 0.002 µM; for `CCC(C)N1CCN(C(=O)c2ccc(CN3CCCCCC3)cc2)CC1` (centres unmarked) [Example 23, (4-Azepan-1-ylmethyl-phenyl)-(4-sec-butyl-piperazin-1-yl)-methanone]: 0.0009 µM.
On the same count and under the same terms, the result for `CCC(C)N1CCN(C(=O)c2ccc(CN(C)C)cc2)CC1` (centres unmarked) [Example 24, (4-sec-Butyl-piperazin-1-yl)-(4-dimethylaminomethyl-phenyl)-methanone] reads 0.0015 µM; that for `CCC(C)N1CCN(C(=O)c2ccc(CN3CCCC3)cc2)CC1` (centres unmarked) [Example 25, (4-sec-Butyl-piperazin-1-yl)-(4-pyrrolidin-1-ylmethyl-phenyl)-methanone], 0.001 µM.
Same read-out and setting: the result for `CCC(CC)N1CCN(C(=O)c2ccc(CN3CCCC3)cc2)CC1` [Example 26, {4-(1-Ethyl-propyl)-piperazin-1-yl}-(4-pyrrolidin-1-ylmethyl-phenyl)-methanone] reads 0.0009 µM; that for `CCC(CC)N1CCN(C(=O)c2ccc(CN3CCCCC3)cc2)CC1` [Example 27, {4-(1-Ethyl-propyl)-piperazin-1-yl}-(4-piperidin-1-ylmethyl-phenyl)-methanone], 0.0004 µM.
Compound `CCC(C)N1CCN(C(=O)c2ccc(CN3CCCCC3)cc2)CC1` (centres unmarked) [Example 28, (4-sec-Butyl-piperazin-1-yl)-(4-piperidin-1-ylmethyl-phenyl)-methanone] came in with a Ki of 0.0009 µM.
The same measure, in the same setting: the result for `CCC(C)N1CCN(C(=O)c2ccc(CNc3ccccc3)cc2)CC1` (centres unmarked) [Example 29, (4-sec-Butyl-piperazin-1-yl)-(4-phenylaminomethyl-phenyl)-methanone] reads 0.038 µM.
On the same count and under the same terms, the same measure for `CCCCN1CCN(C(=O)c2ccc(CN(C)C)cc2)CC1` [Example 30, (4-Butyl-piperazin-1-yl)-(4-dimethylaminomethyl-phenyl)-methanone]: 0.018 µM.
Still for that read-out and setting: the result for `CCCCN1CCN(C(=O)c2ccc(CNc3ccc(C(F)(F)F)cc3)cc2)CC1` [Example 31, (4-Butyl-piperazin-1-yl)-{4-{(4-trifluoromethyl-phenylamino)-methyl}-phenyl}-methanone] reads 0.63 µM; that for `CCCCCCC(C)N1CCN(C(=O)c2ccc(CN3CCOCC3)cc2)CC1` (centres unmarked) [Example 32, {4-(1-Methyl-heptyl)-piperazin-1-yl}-(4-morpholin-4-ylmethyl-phenyl)-methanone], 0.13 µM; that for `CCCCCCC(C)N1CCN(C(=O)c2ccc(CN3CCCCC3)cc2)CC1` (centres unmarked) [Example 33, {4-(1-Methyl-heptyl)-piperazin-1-yl}-(4-piperidin-1-ylmethyl-phenyl)-methanone], 0.052 µM.
`CC(C)N1CCN(C(=O)c2ccc(CNc3ccc(C(F)(F)F)cc3)cc2)CC1` [Example 34, (4-Isopropyl-piperazin-1-yl)-{4-{(4-trifluoromethyl-phenylamino)-methyl}-phenyl}-methanone]: the affinity corresponds to a Ki of 0.068 µM.
The same measure, in the same setting: the result for `CCCCN1CCN(C(=O)c2ccc(CN3CCCC(C(F)(F)F)C3)cc2)CC1` (centres unmarked) [Example 36, (4-Butyl-piperazin-1-yl)-{4-(3-trifluoromethyl-piperidin-1-ylmethyl)-phenyl}-methanone] reads 0.012 µM; that for `CCCCN1CCN(C(=O)c2ccc(CN3CCOCC3)cc2)CC1` [Example 37, (4-Butyl-piperazin-1-yl)-(4-morpholin-4-ylmethyl-phenyl)-methanone], 0.009 µM; that for `CC(C)N1CCN(C(=O)c2cccc(CN3CCOCC3)c2)CC1` [Example 38, (4-Isopropyl-piperazin-1-yl)-(3-morpholin-4-ylmethyl-phenyl)-methanone], 0.18 µM.
The compound `CC(C)N1CCN(C(=O)c2cccc(CN3CCCCC3)c2)CC1` [Example 39, (4-Isopropyl-piperazin-1-yl)-(3-piperidin-1-ylmethyl-phenyl)-methanone] came in with a Ki of 0.035 µM.
The same measure, in the same setting: the same measure for `CC(C)N1CCN(C(=O)c2ccc(CN3CCOCC3)cc2)CC1` [Example 40]: 0.003 µM; for `CN1CCN(C(=O)c2cccc(CN3CCC(Cc4ccccc4)CC3)c2)CC1` [Example 42, {3-(4-Benzyl-piperidin-1-ylmethyl)-phenyl}-(4-methyl-piperazin-1-yl)-methanone]: 0.8 µM; for `CN1CCN(C(=O)c2ccc(CN3CCOCC3)cc2)CC1` [Example 43, (4-Methyl-piperazin-1-yl)-(4-morpholin-4-ylmethyl-phenyl)-methanone dihydrochloride]: 0.022 µM.
Still for that read-out and setting: the result for `CC(C)N1CCN(C(=O)c2ccc(CNc3cc(C(F)(F)F)ccn3)cc2)CC1` [Example 44, (4-Isopropyl-piperazin-1-yl)-{4-{4-trifluoromethyl-pyridin-2-ylamino)-methyl}-phenyl}-methanone dihydrochloride] reads 0.085 µM; that for `CCC(CC)N1CCN(C(=O)c2ccc(CNc3ccccc3)cc2)CC1` [Example 45, {4-(1-Ethyl-propyl)-piperazin-1-yl}-(4-phenylaminomethyl-phenyl)-methanone dihydrochloride], 0.054 µM.
Compound `CCC(CC)N1CCN(C(=O)c2ccc(CN(C)C)cc2)CC1` [Example 46, (4-Dimethylaminomethyl-phenyl)-{4-(1-ethyl-propyl)-piperazin-1-yl}-methanone dihydrochloride] had a Ki of 0.002 µM.
The same measure, in the same setting: the result for `CCC(CC)N1CCN(C(=O)c2ccc(CNc3ccc(C(F)(F)F)cc3)cc2)CC1` [Example 47, {4-(1-Ethyl-propyl)-piperazin-1-yl}-{-{4-{(4-trifluoromethyl-phenylamino)-methyl}-phenyl}-methanone dihydrochloride] reads 0.081 µM.
Still for that read-out and setting: the same measure for `CCC(CC)N1CCN(C(=O)c2ccc(CN3CCOCC3)cc2)CC1` [Example 48, {4-(1-Ethyl-propyl)-piperazin-1-yl}-(4-morpholin-4-ylmethyl-phenyl)-methanone dihydrochloride]: 0.001 µM; for `CCC(CC)N1CCN(C(=O)c2ccc(CN3CCCC(C(F)(F)F)C3)cc2)CC1` (centres unmarked) [Example 49, {4-(1-Ethyl-propyl)-piperazin-1-yl}-{4-(3-trifluoromethyl-piperidin-1-ylmethyl)-phenyl}-methanone dihydrochloride]: 0.004 µM.
The same measure, in the same setting: the result for `CCC(C)N1CCN(C(=O)c2ccc(CN3CCCC(C(F)(F)F)C3)cc2)CC1` (centres unmarked) [Example 50, (4-sec-Butyl-piperazin-1-yl)-{4-(3-trifluoromethyl-piperidin-1-ylmethyl)-phenyl}-methanone dihydrochloride] reads 0.03 µM; that for `CCC(C)N1CCN(C(=O)c2ccc(CN3CCOCC3)cc2)CC1` (centres unmarked) [Example 51, (4-sec-Butyl-piperazin-1-yl)-(4-morpholin-4-ylmethyl-phenyl)-methanone dihydrochloride], 0.002 µM.
`CC(C)N1CCN(C(=O)c2ccc(CNc3ccc(C(F)(F)F)nc3)cc2)CC1` [Example 52, (4-Isopropryl-piperazin-1-yl)-{4-{(6-trifluoromethyl-pyridin-3-ylamino)-methyl}-phenyl}-methanone dihydrochloride] came in with a Ki of 0.014 µM.
The same measure, in the same setting: the same measure for `CC(C)N1CCN(C(=O)c2ccc(CNc3ccc(Cl)cn3)cc2)CC1` [Example 53, {4-{(5-Chloro-pyridin-2-ylamino)-methyl}-phenyl}-4-isopropyl-piperazin-1-yl)-methanone dihydrochloride]: 0.03 µM.
Still for that read-out and setting: the same measure for `CN1CCN(C(=O)c2ccc(CN3CCCCC3)cc2)CC1` [Example 54, (4-Methyl-piperazin-1-yl)-(4-piperidin-1-ylmethyl-phenyl)-methanone dihydrochloride]: 0.024 µM.
Same read-out and setting: the same measure for `CC(C)N1CCN(C(=O)c2ccc(CNc3ccc(C(F)(F)F)cn3)cc2)CC1` [Example 55, (4-Isopropyl-piperazin-1-yl)-{4-{(5-trifluoromethyl-pyridin-2-ylamino)-methyl}-phenyl}-methanone dihydrochloride]: 0.049 µM.

Staying with this assay, now noted: membranes of histamine H3 receptor-expressing SK-N-MC cells; 0.8 nM {3H}-N-methylhistamine; 45 min at 25° C.; […].
The compound `CC(C)N1CCN(Cc2ccc(C(=O)N3CCN(C(C)C)CC3)cc2)CC1` [Example 35, (4-Isopropyl-piperazin-1-yl)-{4-(4-isopropyl-piperazin-1-ylmethyl)-phenyl}-methanone] returned a Ki of 0.018 µM.

In general, Ki refers to the dissociation constant of the complex between target and ligand, obtained from inhibition or displacement.
